In patent US20210196720A1 (UROVANT SCIENCES GMBH, priority 2018, published 2021):
Like-named read-outs stand apart in the source and are kept apart here.

Columns and labels:
[1] = Drug interaction: effect of conmed on vibegron PK; format: in vivo, human; conditions: for half-life / AUC / Cmax: human, oral; for half-life: read-out: GM t1/2 (converted); for AUC / Cmax: plasma
Excerpt: However, these interactions are not expected to be clinically significant.

β3-AR = β3-AR (Homo sapiens, UniProt P13945); assay: biochemical
β3-AR, sequence (P13945 whole entry): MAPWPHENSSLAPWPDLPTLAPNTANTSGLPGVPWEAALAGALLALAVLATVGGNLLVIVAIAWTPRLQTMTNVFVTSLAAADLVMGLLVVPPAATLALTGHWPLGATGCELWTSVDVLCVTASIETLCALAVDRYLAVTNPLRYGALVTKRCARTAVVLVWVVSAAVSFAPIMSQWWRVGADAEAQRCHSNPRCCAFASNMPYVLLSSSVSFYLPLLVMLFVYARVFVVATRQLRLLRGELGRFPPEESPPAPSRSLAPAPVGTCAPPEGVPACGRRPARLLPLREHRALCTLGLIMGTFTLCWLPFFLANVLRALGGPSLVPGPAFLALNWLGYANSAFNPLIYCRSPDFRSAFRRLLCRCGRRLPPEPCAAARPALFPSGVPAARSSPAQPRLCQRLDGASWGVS

[2] = Renal impairment PK, single 100 mg; parameters: AUC0-inf GMR vs healthy / Cmax GMR vs healthy: unit not given beside the values;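 further: pharmacokinetic parameters in patients with renal impairment of differing severity, statistically compared against matched healthy subjects as controls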
[3] = Aqueous vs non-aqueous tablet bioequivalence, 50 mg; format: in vivo, human
Excerpt: An open-label, single-dose, randomized, two-period, two-treatment, two-sequence, crossover Phase 1 study evaluated the relative bioequivalence of two types of tablets with slightly different composition: aqueous tablet (test) and non-aqueous tablet (reference).

[4] = Dose-Cmax and dose-AUC models / simulations for 75 mg; parameters: species or system human
Procedure: In order to contextualize PK parameters of a 75 mg dose, dose-Cmax and dose-AUC models were created using data from Phase 1 studies.

[5] = 100 mg QD + tolterodine ER 4 mg QD
[6] = 100 mg single + diltiazem ER 240 mg QD
[7] = 100 mg single + ketoconazole 200 mg every 12 hours
[8] = 100 mg, 100 mg QD alone (tolterodine study)
[9] = 100 mg, 100 mg single, alone (diltiazem study)
[10] = 100 mg, 100 mg single, alone (ketoconazole study)
[11] = 150 mg QD + tolterodine ER 4 mg QD
[12] = 150 mg, 150 mg QD alone (tolterodine study)
[13] = with multiple doses of diltiazem

`O=C(Nc1ccc(C[C@@H]2CC[C@H]([C@H](O)c3ccccc3)N2)cc1)[C@@H]1CCc2nccc(=O)n21` [Vibegron, (6S)-N-[4-[[(2S,5R)-5-[(R)-hydroxy(phenyl)methyl]pyrrolidin-2-yl]methyl]phenyl]-4-oxo-7,8-dihydro-6H-pyrrolo[1,2-a]pyrimidine-6-carboxamide] showed a half-life ([1]; in vivo, 100 mg, vibegron alone) of 75 h, a half-life ([1]; in vivo, with diltiazem) of 75.4 h and a half-life ([1]; in vivo, with ketoconazole) of 80.2 h. It also gave an AUC [1, 5] of 1790 ng·h/mL, a Cmax [1, 5] of 163 ng/mL and an AUC [1, 6] of 2170 ng·h/mL. It also gave a Cmax [1, 6] of 167 ng/mL, an AUC [1, 7] of 2850 ng·h/mL and a Cmax [1, 7] of 251 ng/mL. The AUC [1, 8] was 1660 ng·h/mL, the Cmax [1, 8] was 158 ng/mL and the AUC [1, 9] was 1330 ng·h/mL. The Cmax [1, 9] was 99.8 ng/mL, the AUC [1, 10] was 1370 ng·h/mL and the Cmax [1, 10] was 113 ng/mL. For the same compound, the AUC [1, 11] was 3100 ng·h/mL, the Cmax [1, 11] was 304 ng/mL and the AUC [1, 12] was 2780 ng·h/mL. The Cmax [1, 12] was 269 ng/mL, the “effect of tolterodine ER 4 mg on pharmacokinetics of vibegron” value ([1]; in vivo) was “no effect” and the higher exposure ([1]; with a potent CYP3A/P-gp inhibitor) was roughly 2 fold. For the same compound, the “GM AUC0-inf increase” value [1, 13] was 63%, the “GM Cmax increase” value [1, 13] was 68% and the IC50 (β3-AR) was 193 nM. For the same compound, the AUC(0-inf) ([2]; healthy matched controls) was 1540 ng·h/mL, the “Apparent terminal t1/2” value ([2]; healthy matched controls) was 98.8 h and the CL/F ([2]; healthy matched controls) was 64.9 L/h. The CLR ([2]; healthy matched controls) was 10.4 L/h, the “Fe[urine]48 hr” value ([2]; healthy matched controls) was 7.9% and the “AUC0-inf GMR vs healthy” value ([2]; mild renal impairment) was 1.49. For the same compound, the “AUC0-inf higher than healthy controls” value ([2]; mild renal impairment) was 49%, the AUC(0-inf) ([2]; mild renal impairment) was 2290 ng·h/mL and the “Apparent terminal t1/2” value ([2]; mild renal impairment) was 96.2 h. The CL/F ([2]; mild renal impairment) was 43.6 L/h, the CLR ([2]; mild renal impairment) was 6.3 L/h and the “CLR reduction vs healthy controls” value ([2]; mild renal impairment) was 39%. The Cmax ([2]; mild renal impairment) was 210 ng/mL, the “Cmax GMR vs healthy” value ([2]; mild renal impairment) was 1.96 and the “Cmax higher than healthy controls” value ([2]; mild renal impairment) was 96%. For the same compound, the “Fe[urine]48 hr” value ([2]; mild renal impairment) was 8.5%, the Tmax ([2]; mild renal impairment) was 1.0 h and the “AUC0-inf GMR vs healthy” value ([2]; moderate renal impairment) was 2.06. For the same compound, the “AUC0-inf higher than healthy controls” value ([2]; moderate renal impairment) was 106%, the AUC(0-inf) ([2]; moderate renal impairment) was 3170 ng·h/mL and the “Apparent terminal t1/2” value ([2]; moderate renal impairment) was 108 h. The CL/F ([2]; moderate renal impairment) was 31.5 L/h, the CLR ([2]; moderate renal impairment) was 3.6 L/h and the “CLR reduction vs healthy controls” value ([2]; moderate renal impairment) was 65%. For the same compound, the Cmax ([2]; moderate renal impairment) was 180 ng/mL, the “Cmax GMR vs healthy” value ([2]; moderate renal impairment) was 1.68 and the “Cmax higher than healthy controls” value ([2]; moderate renal impairment) was 68%. The “Fe[urine]48 hr” value ([2]; moderate renal impairment) was 5.5%, the Tmax ([2]; moderate renal impairment) was 1.3 h and the “mean increase in AUC vs normal renal function” value ([2]; moderate renal impairment) was 1.6 fold. For the same compound, the “AUC0-inf GMR vs healthy” value ([2]; severe renal impairment) was 1.83, the “AUC0-inf higher than healthy controls” value ([2]; severe renal impairment) was 83% and the AUC(0-inf) ([2]; severe renal impairment) was 2820 ng·h/mL. For the same compound, the CL/F ([2]; severe renal impairment) was 35.5 L/h, the CLR ([2]; severe renal impairment) was 1.9 L/h and the “CLR reduction vs healthy controls” value ([2]; severe renal impairment) was 82%. The “Cmax GMR vs healthy” value ([2]; severe renal impairment) was 1.42, the “Cmax higher than healthy controls” value ([2]; severe renal impairment) was 42% and the “Fe[urine]48 hr” value ([2]; severe renal impairment) was 2.1%. The Tmax ([2]; severe renal impairment) was 0.5 h, the “AUC0-inf GMR test/reference” value ([3]; 50 mg) was 100.2% and the “Cmax GMR test/reference” value ([3]; 50 mg) was 107.7%. The AUC(0-inf) ([3]; 50 mg test, aqueous tablet (PMFII)) was 671 ng·h/mL, the Cmax ([3]; human, plasma, po, 50 mg, 50 mg reference, non-aqueous tablet (PMF1)) was 38 ng/mL and the Cmax ([3]; human, plasma, po, 50 mg, 50 mg test, aqueous tablet (PMFII)) was 41 ng/mL. The AUC(0-inf) ([3]; human, plasma, po, 50 mg, read-out: AUC0-inf) was 671 ng·h/mL, the “AUC of 75 mg lower than 200 mg single dose” value [4] was roughly 2 fold and the “AUC of 75 mg lower than 400 mg single dose” value [4] was roughly 6 fold. The “Cmax of 75 mg lower than 200 mg single dose” value [4] was “approximately 3.3 fold” and the “Cmax of 75 mg lower than 400 mg single dose” value [4] was roughly 9.2 fold.
